In publication PMC4076210, “Discovery of Novel AKT Inhibitors with Enhanced Anti-Tumor Effects in Combination with the MEK Inhibitor” (PLoS ONE, 2014):
Where two headings read alike, the source gives them in different places.

Columns and labels:
Test in all cases: Kinase panel
Format in all cases: biochemical
[1] = molecular target: T1, ASK1(h) (Homo sapiens, UniProt Q99683)
T1 construct: purchased Millipore KinaseProfiler
T1 sequence (Q99683 1-1374): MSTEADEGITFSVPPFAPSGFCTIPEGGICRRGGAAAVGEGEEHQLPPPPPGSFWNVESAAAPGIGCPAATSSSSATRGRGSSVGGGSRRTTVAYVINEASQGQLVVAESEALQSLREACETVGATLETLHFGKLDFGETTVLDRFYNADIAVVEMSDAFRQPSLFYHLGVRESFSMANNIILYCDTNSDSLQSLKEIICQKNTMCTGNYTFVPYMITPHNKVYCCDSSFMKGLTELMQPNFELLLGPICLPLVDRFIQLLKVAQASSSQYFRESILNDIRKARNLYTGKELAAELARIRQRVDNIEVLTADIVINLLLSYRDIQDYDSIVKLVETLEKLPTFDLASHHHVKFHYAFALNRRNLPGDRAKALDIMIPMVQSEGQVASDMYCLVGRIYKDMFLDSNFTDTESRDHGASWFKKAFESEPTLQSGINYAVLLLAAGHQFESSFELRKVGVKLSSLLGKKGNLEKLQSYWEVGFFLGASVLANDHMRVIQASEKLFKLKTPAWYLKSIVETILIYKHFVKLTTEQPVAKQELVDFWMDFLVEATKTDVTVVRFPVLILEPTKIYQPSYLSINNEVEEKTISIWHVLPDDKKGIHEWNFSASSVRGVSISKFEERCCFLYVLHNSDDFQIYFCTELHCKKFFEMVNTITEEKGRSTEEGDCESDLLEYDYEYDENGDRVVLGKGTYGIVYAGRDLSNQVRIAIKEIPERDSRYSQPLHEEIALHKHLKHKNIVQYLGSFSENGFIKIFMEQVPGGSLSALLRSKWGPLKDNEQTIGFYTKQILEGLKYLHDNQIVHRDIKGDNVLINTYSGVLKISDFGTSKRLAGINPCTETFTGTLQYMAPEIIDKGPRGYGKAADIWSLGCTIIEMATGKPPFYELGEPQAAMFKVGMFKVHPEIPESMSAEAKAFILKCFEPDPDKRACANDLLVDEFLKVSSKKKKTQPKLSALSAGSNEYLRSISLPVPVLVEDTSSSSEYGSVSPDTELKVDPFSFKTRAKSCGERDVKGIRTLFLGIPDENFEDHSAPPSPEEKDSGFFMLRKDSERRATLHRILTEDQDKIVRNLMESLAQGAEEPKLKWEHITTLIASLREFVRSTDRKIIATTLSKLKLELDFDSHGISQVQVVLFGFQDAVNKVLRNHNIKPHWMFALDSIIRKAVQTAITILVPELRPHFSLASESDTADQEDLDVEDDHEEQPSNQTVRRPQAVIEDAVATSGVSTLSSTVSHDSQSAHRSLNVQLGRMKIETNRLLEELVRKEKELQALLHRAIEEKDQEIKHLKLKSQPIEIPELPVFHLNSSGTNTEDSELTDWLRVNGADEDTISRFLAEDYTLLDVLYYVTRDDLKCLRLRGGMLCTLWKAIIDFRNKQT

[2] = molecular target: T2, CDK5/p35(h) (Homo sapiens, UniProt Q00535)
T2 construct: purchased Millipore KinaseProfiler

[3] = molecular target: T3, cKit(h) (Homo sapiens, UniProt P10721)
T3 construct: purchased Millipore KinaseProfiler

[4] = molecular target: T4, EphA4(h) (Homo sapiens, UniProt P54764)
T4 construct: purchased Millipore KinaseProfiler

[5] = molecular target: T5, Hck(h) (Homo sapiens, UniProt P08631)
T5 construct: purchased Millipore KinaseProfiler

[6] = molecular target: T6, MLK1(h) (Homo sapiens, UniProt P80192)
T6 construct: purchased Millipore KinaseProfiler

[7] = molecular target: T7, PDK1(h) (Homo sapiens, UniProt O15530)
T7 construct: purchased Millipore KinaseProfiler
T7 sequence (O15530 1-556): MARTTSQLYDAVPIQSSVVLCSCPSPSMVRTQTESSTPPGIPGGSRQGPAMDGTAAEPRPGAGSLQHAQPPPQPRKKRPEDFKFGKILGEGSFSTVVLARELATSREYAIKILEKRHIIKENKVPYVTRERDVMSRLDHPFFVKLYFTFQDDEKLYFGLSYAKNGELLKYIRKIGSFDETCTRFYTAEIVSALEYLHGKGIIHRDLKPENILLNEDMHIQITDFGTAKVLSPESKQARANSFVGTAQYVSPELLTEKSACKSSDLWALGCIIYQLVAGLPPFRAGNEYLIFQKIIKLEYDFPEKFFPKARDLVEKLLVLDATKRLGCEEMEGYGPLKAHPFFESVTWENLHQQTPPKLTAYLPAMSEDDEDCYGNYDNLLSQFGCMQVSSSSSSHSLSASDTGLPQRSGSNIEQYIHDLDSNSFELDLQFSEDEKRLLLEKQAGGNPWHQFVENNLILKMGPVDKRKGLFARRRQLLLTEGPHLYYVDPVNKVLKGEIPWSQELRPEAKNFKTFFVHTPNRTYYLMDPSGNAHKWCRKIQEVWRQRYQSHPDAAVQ

[8] = molecular target: T8, PKA(h) (Homo sapiens, UniProt P17612)
T8 construct: purchased Millipore KinaseProfiler

[9] = molecular target: T9, Ret (V804L)(h) (Homo sapiens, UniProt P07949, V804L)
T9 construct: purchased Millipore KinaseProfiler

[10] = molecular target: T10, SIK(h) (Homo sapiens, UniProt P57059)
T10 construct: purchased Millipore KinaseProfiler

[11] = molecular target: T11, SRPK1(h) (Homo sapiens, UniProt Q96SB4)
T11 construct: purchased Millipore KinaseProfiler

[12] = molecular target: T12, Tie2(R849W)(h) (Homo sapiens, UniProt Q02763, R849W)
T12 construct: purchased Millipore KinaseProfiler
T12 sequence (Q02763 23-1124 R849W): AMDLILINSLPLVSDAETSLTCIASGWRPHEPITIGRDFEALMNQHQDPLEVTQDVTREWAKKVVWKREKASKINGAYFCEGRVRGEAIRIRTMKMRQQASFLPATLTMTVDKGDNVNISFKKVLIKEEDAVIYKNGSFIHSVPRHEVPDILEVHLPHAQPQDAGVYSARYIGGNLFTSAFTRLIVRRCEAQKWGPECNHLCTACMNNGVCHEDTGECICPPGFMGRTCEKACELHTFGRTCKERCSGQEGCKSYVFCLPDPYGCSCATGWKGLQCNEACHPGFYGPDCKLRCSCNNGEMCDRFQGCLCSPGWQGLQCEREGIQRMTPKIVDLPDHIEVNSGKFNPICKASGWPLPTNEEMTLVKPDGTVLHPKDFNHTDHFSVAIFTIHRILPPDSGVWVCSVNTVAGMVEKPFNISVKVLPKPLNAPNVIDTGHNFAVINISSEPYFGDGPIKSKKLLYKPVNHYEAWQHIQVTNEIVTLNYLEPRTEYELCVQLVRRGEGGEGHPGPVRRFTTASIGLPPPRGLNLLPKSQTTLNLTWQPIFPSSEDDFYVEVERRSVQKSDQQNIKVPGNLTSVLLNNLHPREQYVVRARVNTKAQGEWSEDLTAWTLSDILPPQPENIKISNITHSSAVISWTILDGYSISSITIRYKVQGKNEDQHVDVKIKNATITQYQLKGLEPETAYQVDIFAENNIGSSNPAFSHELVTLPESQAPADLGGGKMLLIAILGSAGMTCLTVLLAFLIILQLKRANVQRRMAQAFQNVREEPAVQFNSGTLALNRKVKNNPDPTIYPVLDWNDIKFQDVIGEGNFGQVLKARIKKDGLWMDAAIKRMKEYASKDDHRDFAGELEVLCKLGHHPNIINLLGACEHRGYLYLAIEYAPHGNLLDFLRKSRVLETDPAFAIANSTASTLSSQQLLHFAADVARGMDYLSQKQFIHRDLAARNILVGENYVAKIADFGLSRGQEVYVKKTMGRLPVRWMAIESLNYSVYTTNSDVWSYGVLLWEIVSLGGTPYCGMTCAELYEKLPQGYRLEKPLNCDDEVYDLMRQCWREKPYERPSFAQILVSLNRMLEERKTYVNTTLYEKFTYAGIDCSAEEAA

T2 sequence (Q00535 whole entry): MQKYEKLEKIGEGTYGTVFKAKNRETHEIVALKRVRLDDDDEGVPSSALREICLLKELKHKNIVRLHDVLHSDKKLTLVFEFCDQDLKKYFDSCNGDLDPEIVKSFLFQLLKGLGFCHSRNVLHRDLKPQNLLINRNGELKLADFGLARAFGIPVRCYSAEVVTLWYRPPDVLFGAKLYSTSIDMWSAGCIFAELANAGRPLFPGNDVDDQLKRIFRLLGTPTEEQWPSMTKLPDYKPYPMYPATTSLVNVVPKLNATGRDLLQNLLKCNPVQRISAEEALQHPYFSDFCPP
T2 sequence (Q15078 whole entry partner): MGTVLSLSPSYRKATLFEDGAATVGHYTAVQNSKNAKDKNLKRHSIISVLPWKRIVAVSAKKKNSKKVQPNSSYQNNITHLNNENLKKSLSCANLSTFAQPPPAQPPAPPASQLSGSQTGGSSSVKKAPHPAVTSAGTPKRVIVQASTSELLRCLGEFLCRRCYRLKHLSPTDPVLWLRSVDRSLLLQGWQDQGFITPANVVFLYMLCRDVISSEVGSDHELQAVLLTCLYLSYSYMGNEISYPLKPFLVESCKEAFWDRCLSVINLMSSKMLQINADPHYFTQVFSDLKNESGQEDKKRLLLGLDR
T5 sequence (P08631 whole entry): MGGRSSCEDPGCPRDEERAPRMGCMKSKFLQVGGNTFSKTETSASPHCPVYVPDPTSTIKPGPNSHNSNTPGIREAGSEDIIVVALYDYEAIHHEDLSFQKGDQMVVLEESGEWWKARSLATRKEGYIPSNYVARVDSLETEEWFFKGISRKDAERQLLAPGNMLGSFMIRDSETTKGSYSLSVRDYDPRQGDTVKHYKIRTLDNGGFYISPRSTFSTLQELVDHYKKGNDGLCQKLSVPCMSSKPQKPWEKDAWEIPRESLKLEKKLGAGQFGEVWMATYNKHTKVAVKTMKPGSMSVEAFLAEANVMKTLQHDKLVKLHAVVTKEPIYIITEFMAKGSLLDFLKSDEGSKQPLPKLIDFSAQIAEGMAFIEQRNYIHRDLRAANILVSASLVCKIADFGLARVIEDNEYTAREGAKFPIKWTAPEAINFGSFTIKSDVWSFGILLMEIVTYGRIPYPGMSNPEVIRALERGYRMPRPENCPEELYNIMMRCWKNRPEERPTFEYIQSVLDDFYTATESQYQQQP
T3 sequence (P10721 26-976): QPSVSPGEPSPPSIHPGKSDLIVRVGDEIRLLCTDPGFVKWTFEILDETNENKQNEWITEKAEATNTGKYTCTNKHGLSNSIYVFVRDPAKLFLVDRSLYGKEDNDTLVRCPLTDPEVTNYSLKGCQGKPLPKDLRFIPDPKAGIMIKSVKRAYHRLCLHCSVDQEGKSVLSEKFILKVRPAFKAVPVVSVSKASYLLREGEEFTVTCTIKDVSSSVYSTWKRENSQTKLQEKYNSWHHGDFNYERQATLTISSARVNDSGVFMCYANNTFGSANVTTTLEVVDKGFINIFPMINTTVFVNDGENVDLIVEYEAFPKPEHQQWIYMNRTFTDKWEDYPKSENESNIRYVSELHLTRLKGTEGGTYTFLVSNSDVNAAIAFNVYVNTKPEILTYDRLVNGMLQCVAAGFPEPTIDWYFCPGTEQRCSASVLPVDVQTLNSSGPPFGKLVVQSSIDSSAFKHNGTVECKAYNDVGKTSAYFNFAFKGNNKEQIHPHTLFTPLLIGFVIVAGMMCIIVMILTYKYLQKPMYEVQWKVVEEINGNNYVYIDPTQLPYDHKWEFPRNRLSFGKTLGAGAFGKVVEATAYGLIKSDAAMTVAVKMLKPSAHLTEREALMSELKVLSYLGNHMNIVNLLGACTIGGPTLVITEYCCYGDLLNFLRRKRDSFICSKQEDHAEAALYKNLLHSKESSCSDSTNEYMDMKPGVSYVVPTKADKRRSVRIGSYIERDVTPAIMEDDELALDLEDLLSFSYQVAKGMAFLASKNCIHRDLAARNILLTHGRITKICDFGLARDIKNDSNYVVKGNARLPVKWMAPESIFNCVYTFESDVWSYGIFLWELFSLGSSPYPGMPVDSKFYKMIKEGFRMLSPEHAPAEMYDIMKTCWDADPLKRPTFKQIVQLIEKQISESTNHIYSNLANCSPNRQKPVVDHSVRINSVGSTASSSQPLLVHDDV
T9 sequence (P07949 29-1114 V804L): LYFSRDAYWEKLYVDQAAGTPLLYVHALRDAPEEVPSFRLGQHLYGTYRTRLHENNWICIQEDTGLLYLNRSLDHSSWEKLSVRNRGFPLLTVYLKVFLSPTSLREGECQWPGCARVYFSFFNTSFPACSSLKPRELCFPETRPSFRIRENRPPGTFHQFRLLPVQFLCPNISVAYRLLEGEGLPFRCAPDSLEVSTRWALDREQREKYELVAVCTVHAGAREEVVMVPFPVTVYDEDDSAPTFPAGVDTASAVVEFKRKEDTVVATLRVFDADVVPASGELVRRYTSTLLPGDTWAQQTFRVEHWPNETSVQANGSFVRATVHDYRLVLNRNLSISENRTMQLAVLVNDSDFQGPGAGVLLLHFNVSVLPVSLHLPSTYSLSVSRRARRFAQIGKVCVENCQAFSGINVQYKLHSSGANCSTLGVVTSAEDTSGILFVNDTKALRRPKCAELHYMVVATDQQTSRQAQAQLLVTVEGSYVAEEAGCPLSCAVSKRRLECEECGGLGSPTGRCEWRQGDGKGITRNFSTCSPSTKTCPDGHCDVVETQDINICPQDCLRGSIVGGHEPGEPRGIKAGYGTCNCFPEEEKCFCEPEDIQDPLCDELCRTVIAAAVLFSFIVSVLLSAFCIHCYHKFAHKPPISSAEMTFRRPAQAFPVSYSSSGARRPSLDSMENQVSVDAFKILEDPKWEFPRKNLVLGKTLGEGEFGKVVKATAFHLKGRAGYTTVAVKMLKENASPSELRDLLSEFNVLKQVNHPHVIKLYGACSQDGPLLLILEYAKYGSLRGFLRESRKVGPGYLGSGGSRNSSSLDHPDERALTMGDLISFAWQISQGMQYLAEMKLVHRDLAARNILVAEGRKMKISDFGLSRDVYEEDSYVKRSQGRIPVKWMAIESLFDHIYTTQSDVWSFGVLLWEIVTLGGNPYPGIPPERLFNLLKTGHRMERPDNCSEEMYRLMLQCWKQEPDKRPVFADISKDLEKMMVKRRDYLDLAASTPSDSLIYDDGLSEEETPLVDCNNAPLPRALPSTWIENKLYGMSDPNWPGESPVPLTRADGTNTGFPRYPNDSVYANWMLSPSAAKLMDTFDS
T10 sequence (P57059 whole entry): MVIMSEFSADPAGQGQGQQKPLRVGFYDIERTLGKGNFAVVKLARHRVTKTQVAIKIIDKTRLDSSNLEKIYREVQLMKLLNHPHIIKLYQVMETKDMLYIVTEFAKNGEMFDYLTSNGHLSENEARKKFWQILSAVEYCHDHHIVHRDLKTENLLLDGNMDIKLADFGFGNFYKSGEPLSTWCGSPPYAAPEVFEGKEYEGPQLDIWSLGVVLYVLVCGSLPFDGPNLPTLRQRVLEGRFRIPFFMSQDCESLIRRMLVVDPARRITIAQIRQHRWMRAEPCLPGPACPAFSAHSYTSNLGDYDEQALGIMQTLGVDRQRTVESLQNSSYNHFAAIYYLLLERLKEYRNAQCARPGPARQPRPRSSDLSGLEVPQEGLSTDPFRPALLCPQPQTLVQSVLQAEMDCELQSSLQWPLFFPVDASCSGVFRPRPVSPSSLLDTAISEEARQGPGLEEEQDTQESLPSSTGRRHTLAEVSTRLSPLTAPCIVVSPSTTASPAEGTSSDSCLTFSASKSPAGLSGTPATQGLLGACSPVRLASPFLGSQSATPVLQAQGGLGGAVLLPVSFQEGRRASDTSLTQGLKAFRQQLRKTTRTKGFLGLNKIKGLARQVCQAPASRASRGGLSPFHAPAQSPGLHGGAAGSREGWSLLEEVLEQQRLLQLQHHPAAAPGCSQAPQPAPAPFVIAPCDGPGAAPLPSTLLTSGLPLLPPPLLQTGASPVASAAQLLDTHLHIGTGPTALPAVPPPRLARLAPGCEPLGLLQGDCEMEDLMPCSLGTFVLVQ

Q: How did the inhibition at 0.5 µM [1] turn out when `Cn1ncc(Cl)c1-c1cc(C(=O)N[C@H](CN)Cc2cccc(F)c2)sc1Cl` [GSK2110183] was run?
A: The inhibition at 0.5 µM was -2%.

Q: What about the inhibition at 10 µM [1] of the same compound?
A: The inhibition at 10 µM was 3%.

Q: And the inhibition at 0.5 µM [2]?
A: The inhibition at 0.5 µM was -10%.

Q: What about the inhibition at 10 µM [2] of the same compound?
A: The inhibition at 10 µM was 17%.

Q: What about the inhibition at 0.5 µM [3] of the same compound?
A: Its inhibition at 0.5 µM is 13%.

Q: And the inhibition at 10 µM [3]?
A: Its inhibition at 10 µM is 8%.

Q: And the inhibition at 0.5 µM [4]?
A: Its inhibition at 0.5 µM is -1%.

Q: What about the inhibition at 10 µM [4] of the same compound?
A: Its inhibition at 10 µM is -12%.

Q: What about the inhibition at 0.5 µM [5] of the same compound?
A: Its inhibition at 0.5 µM is -21%.

Q: And the inhibition at 10 µM [5]?
A: Its inhibition at 10 µM is -8%.

Q: What about the inhibition at 0.5 µM [6] of the same compound?
A: Its inhibition at 0.5 µM is -8%.

Q: What about the inhibition at 10 µM [6] of the same compound?
A: Its inhibition at 10 µM is 11%.

Q: And the inhibition at 0.5 µM [7]?
A: The inhibition at 0.5 µM was -12%.

Q: And the inhibition at 10 µM [7]?
A: Its inhibition at 10 µM is -6%.

Q: And the inhibition at 0.5 µM [8]?
A: Its inhibition at 0.5 µM is 94%.

Q: And the inhibition at 10 µM [8]?
A: Its inhibition at 10 µM is 96%.

Q: And the inhibition at 0.5 µM [9]?
A: The inhibition at 0.5 µM was -5%.

Q: And the inhibition at 10 µM [9]?
A: The inhibition at 10 µM was 16%.

Q: What about the inhibition at 0.5 µM [10] of the same compound?
A: The inhibition at 0.5 µM was -6%.

Q: What about the inhibition at 10 µM [10] of the same compound?
A: Its inhibition at 10 µM is 16%.

Q: What about the inhibition at 0.5 µM [11] of the same compound?
A: Its inhibition at 0.5 µM is -1%.

Q: What about the inhibition at 10 µM [11] of the same compound?
A: The inhibition at 10 µM was 18%.

Q: What about the inhibition at 0.5 µM [12] of the same compound?
A: Its inhibition at 0.5 µM is -8%.

Q: What about the inhibition at 10 µM [12] of the same compound?
A: The inhibition at 10 µM was -9%.

Q: `Cn1ncc(Cl)c1-c1cc(C(=O)N[C@H](CN)Cc2ccc(F)c(F)c2)oc1Cl` [GSK2141795] was tested. Which inhibition at 0.5 µM ([1]; 0.5 µM, read-out: % Inhibition) did it give?
A: The inhibition at 0.5 µM was -21%.

Q: What about the inhibition at 10 µM ([1]; 10 µM, read-out: % Inhibition) of the same compound?
A: Its inhibition at 10 µM is -14%.

Q: What about the inhibition at 0.5 µM ([2]; 0.5 µM, read-out: % Inhibition) of the same compound?
A: Its inhibition at 0.5 µM is -14%.

Q: What about the inhibition at 10 µM ([2]; 10 µM, read-out: % Inhibition) of the same compound?
A: The inhibition at 10 µM was 32%.

Q: What about the inhibition at 0.5 µM ([3]; 0.5 µM, read-out: % Inhibition) of the same compound?
A: Its inhibition at 0.5 µM is 0%.

Q: And the inhibition at 10 µM ([3]; 10 µM, read-out: % Inhibition)?
A: Its inhibition at 10 µM is -1%.

Q: What about the inhibition at 0.5 µM ([4]; 0.5 µM, read-out: % Inhibition) of the same compound?
A: Its inhibition at 0.5 µM is -10%.

Q: And the inhibition at 10 µM ([4]; 10 µM, read-out: % Inhibition)?
A: The inhibition at 10 µM was -8%.

Q: What about the inhibition at 0.5 µM ([5]; 0.5 µM, read-out: % Inhibition) of the same compound?
A: The inhibition at 0.5 µM was -5%.

Q: What about the inhibition at 10 µM ([5]; 10 µM, read-out: % Inhibition) of the same compound?
A: The inhibition at 10 µM was 27%.

Q: And the inhibition at 0.5 µM ([6]; 0.5 µM, read-out: % Inhibition)?
A: The inhibition at 0.5 µM was -14%.

Q: And the inhibition at 10 µM ([6]; 10 µM, read-out: % Inhibition)?
A: Its inhibition at 10 µM is 45%.

Q: What about the inhibition at 0.5 µM ([7]; 0.5 µM, read-out: % Inhibition) of the same compound?
A: Its inhibition at 0.5 µM is 3%.

Q: And the inhibition at 10 µM ([7]; 10 µM, read-out: % Inhibition)?
A: Its inhibition at 10 µM is 19%.

Q: What about the inhibition at 0.5 µM ([8]; 0.5 µM, read-out: % Inhibition) of the same compound?
A: The inhibition at 0.5 µM was 99%.

Q: What about the inhibition at 10 µM ([8]; 10 µM, read-out: % Inhibition) of the same compound?
A: Its inhibition at 10 µM is 97%.

Q: And the inhibition at 0.5 µM ([9]; 0.5 µM, read-out: % Inhibition)?
A: Its inhibition at 0.5 µM is 4%.

Q: What about the inhibition at 10 µM ([9]; 10 µM, read-out: % Inhibition) of the same compound?
A: The inhibition at 10 µM was 21%.

Q: And the inhibition at 0.5 µM ([10]; 0.5 µM, read-out: % Inhibition)?
A: Its inhibition at 0.5 µM is -4%.

Q: What about the inhibition at 10 µM ([10]; 10 µM, read-out: % Inhibition) of the same compound?
A: The inhibition at 10 µM was 64%.

Q: What about the inhibition at 0.5 µM ([11]; 0.5 µM, read-out: % Inhibition) of the same compound?
A: Its inhibition at 0.5 µM is 5%.

Q: What about the inhibition at 10 µM ([11]; 10 µM, read-out: % Inhibition) of the same compound?
A: The inhibition at 10 µM was 17%.

Q: What about the inhibition at 0.5 µM ([12]; 0.5 µM, read-out: % Inhibition) of the same compound?
A: The inhibition at 0.5 µM was -8%.

Q: What about the inhibition at 10 µM ([12]; 10 µM, read-out: % Inhibition) of the same compound?
A: Its inhibition at 10 µM is 11%.
